Data published in patent US20040180819A1, “Characterization of a membrane estrogen receptor” (priority 2001, published 2004).

How the values were obtained:
mER receptor = test: Saturation binding / Scatchard analysis, D12 membrane (P2) fraction; design: species or system rat
Description: (§1) Briefly, cells were harvested in a binding buffer (10 mM Tris-HCl, 1 mM EDTA, 1 mM DTT; pH=7.2) containing 5 μg/ml protease inhibitors (aprotinin, leupeptin, phosphoramidon, PMSF, pepstatin), pelleted to remove cell media and then homogenized by mechanical disruption (polytron; speed 6 for 10 sec). Unlysed cells and debris were removed by centrifugation at 15,000×g for 15 min at 4° C. The resulting supernatant was homogenized and membranes were isolated by centrifugation at 100,000×g for 1 h at 4° C. The supernatant obtained following the high speed spin was labeled S2 (cytosol) while the pellet was labeled P2 (membranes). The pellet (P2) was resuspended using a glass homogenizer in 3 ml of 0.25 M sucrose in binding buffer. The sucrose gradient was layered in a 15 ml centrifuge tube starting with 41%, 25%, and 10% sucrose using J tubes. The P2 sample was added to the top and the remaining layer was capped with binding buffer. The tubes were centrifuged at 35,000×g for 1 h, placed in a fraction collector (bottom tube draw) and 500 μl samples were collected. Protein concentrations were determined with BCA reagent (Pierce). […] Statistical significance between IC50s and KDs was determined using a pair-wise Z-test. […]

ERα receptor = biological target: T1, ERα receptor (Rattus norvegicus, UniProt P06211); test: Saturation binding / Scatchard analysis, D12 cytosolic (S2) fraction
T1 sequence (P06211 1-600): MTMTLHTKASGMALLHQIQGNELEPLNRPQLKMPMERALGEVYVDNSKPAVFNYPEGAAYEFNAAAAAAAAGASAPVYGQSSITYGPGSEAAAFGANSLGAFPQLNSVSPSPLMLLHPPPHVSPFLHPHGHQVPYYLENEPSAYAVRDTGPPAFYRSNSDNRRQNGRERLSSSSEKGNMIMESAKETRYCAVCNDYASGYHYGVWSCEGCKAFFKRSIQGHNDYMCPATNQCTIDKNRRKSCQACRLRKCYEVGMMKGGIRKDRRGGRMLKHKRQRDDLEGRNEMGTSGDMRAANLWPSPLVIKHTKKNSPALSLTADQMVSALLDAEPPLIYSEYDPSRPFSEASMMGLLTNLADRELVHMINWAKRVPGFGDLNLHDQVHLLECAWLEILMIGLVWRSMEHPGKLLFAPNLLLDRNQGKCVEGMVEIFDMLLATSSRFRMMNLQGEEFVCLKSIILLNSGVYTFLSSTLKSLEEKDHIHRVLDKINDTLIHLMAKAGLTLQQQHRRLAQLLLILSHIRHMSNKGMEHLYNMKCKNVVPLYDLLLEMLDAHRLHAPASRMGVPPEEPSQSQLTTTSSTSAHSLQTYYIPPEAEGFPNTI
Description: as §1

C[C@]12CC[C@@H]3c4ccc(O)cc4CC[C@H]3[C@@H]1C[C@@H]([125I])[C@@H]2O [[^125I]-16α-iodo-3,17β-E2, [^125I]-16-α-iodo-3,17-βestradiol]
Kd (mER receptor): 118 ± 43.6 pM | slope value (ERα receptor; S2 fraction): 0.8 | Kd (ERα receptor; cytosolic (S2) binding): 124 ± 17.1 pM
